Assays:
[1] = test system: excision wound in diet induced obese C57 mice; experiment: Excision wound model in HFD fed C57 mice (wound contraction, histopathology); format: in vivo; conditions: for Wound contraction profile in C57 mice: HFD, 0.5% cream topical twice a day, Mean ± SEM
From the text: (§1) After an acclimatization period, C57 animals on the HFD were weighed and randomly allocated into different groups such as HFD cream base control and HFD+0.5% CNX-010-640 cream. C57 animals on a lean chow diet (Cream base) were also used as a control. Swiss albino mice on a lean chow diet (excision experiments only) were randomized into cream base control and 0.5% CNX-010-640 cream.
(§2) Mice were anaesthetized using ketamine and xylazine, hair was trimmed off and a circular excision of 20 mm^2 size was made on the dorsal neck region. CNX-010-640 cream was applied topically, twice a day. The degree of protection for wound remodeling was assessed by measuring wound contraction and period of epithelialisation. Wound contraction was measured on alternate days by tracing the raw wound area on graph paper carried by butter paper. Scar residue and time for completion of epithelialisation was measured. Results are shown in FIGS. 2 and 3, and Tables 1 to 3. On the termination day animals were euthanized and tissue samples containing wound was collected to study histopathological changes (as shown in FIGS. 6 to 11) and gene expression profiles were determined (FIGS. 12 to 17).
[7] All the values are expressed as Mean±SEM, one way analysis of variance was performed followed by Dunnets' test for establishing the significance value of the treatment groups when compared with the HFD control.

[2] = test system: markers of inflammation at the wound area; experiment: Ex vivo gene expression profile from excision wound model; format: in vivo; conditions: HFD C57BL/6 mice, after one week of compound treatment, skin near wound
From the text: [13] […] The db/db control group wounds were not healed within this time. Furthermore, the size of wound of these control groups at the end of the experiment period (day 12) was achieved by the CNX-010-640 treated mice after only 8 days of treatment. […] [16] […] [17] Additionally, the degree of polymorphonuclear cell infiltration (indicative of inflammatory phase) was greater in the G2 group compared to the G3 group (compare FIGS. 6 and 7). From these microscopic observations it can be concluded that the treatment with 0.5% CNX-010-640 hastened the healing process, as it facilitated an early advancement into the proliferative phase in animals treated with CNX-010-640 (G3 group) of this study. Thus CNX-010-640 cream, when applied topically b.i.d, in excision and incision wound healing model on HFD background animals and normal SAM mice, enhanced the healing process in comparison with normal healing and VersaPro control. […] Gene expression was measured using SYBR Green PCR Master Mix (Eurogenetic, Belgium) and relative levels of expression were quantified (see FIGS. 12 to 17). From this, it is apparent that compound treatment has reduced the markers of inflammation at the wound area, as measured by gene expression. […]

[3] = test system: incision wound in diet induced obese C57 mice; experiment: Incision wound model in HFD fed C57 mice (tensile strength, collagen content); format: in vivo; conditions: diabetic C57 mice
From the text: as §1
(§3) [6] Mice were anaesthetized using ketamine and xylazine, hair was trimmed off and a longitudinal incision of 4 to 5 cm length was made on the back and stitched with thread. CNX-010-640 cream was applied topically, twice a day. The degree of protection for wound remodeling was assessed by measuring tensile strength and collagen content of skin at the healed wound site. Wound tensile strength was measured after 14 days of treatment.

[4] = test system: Human Dermal Fibroblast cells (HDF); experiment: In vitro scratch assay; format: cell-based; conditions: 400 nM cortisone with 1 μM test molecule, 24 h
Procedure: Human Dermal Fibroblast cells (HDF) cells were seeded in 24 well plates (25000 cells/mL) in 1 mL of growth media (Media-106, Gibco) and allowed to grow for 24 h at 37° C. and 5% CO2. A small linear scratch was created in the confluent monolayer by gently scraping with sterile p200 pipette tips (care was taken during scratching process to ensure universal size and distant was made for all samples). Cells were extensively rinsed with PBS to remove cellular debris before adding the media with different treatment solutions (400 nM cortisone with or without 1 μM of test molecule according to Formula (I)). After 24 h, images of migrated cells were taken using a digital camera connected to inverted microscope to observe the closure of wound area. Scratch assays were performed in quadruplicate.

[5] = test system: incision wound in db/db mice; experiment: Incision wound model in db/db mice (tensile strength); format: in vivo; conditions: diabetic db/db mice
Procedure: (§4) db/db Mice (from JAX lab) on chow diet were weighed and randomly allocated into different groups such as db/db cream base control and db/db+0.5% CNX-010-640 cream.
as §3

[6] = test system: excision wound in Swiss albino mice; experiment: Excision wound model in Swiss albino mice (wound contraction); format: in vivo; conditions: for Wound contraction profile in SAM: 0.5% cream topical twice a day, Mean ± SEM
From the text: as §1, §2

[7] = test system: excision wound in db/db mice; experiment: Excision wound model in db/db mice (wound contraction); format: in vivo; conditions: for Wound contraction profile in db/db mice: 0.5% cream topical twice a day, Mean ± SEM
Procedure: as §4, §2

[8] = HFD C57 mice, 0.5% cream, excision wound
[9] = diabetes-induced C57 mice, excision

CC(CC(=O)N1C2CC3CC1CC(O)(C3)C2)c1c[nH]c2ccc(Cl)c(Cl)c12 (stereo not drawn) [CNX-010-640, 3-(4,5-Dichloro-1H-indol-3-yl)-1-(5-hydroxy-2-azatricyclo[3.3.1.1^3,7]dec-2-yl)butan-1-one]
Wound contraction profile in C57 mice ([1]; Day 0): 25.10 ± 1.40 mm^2
Wound contraction profile in C57 mice ([1]; Day 2): 15.80 ± 1.77 mm^2
Wound contraction profile in C57 mice ([1]; Day 4): 17.90 ± 1.92 mm^2
Wound contraction profile in C57 mice ([1]; Day 6): 9.40 ± 1.42 mm^2
Wound contraction profile in C57 mice ([1]; Day 8): 5.60 ± 1.47 mm^2
Wound contraction profile in C57 mice ([1]; Day 10): 4.00 ± 1.41 mm^2
Wound contraction profile in C57 mice ([1]; Day 12): 0.25 ± 0.25 mm^2
degree of collagen deposition (histopathology) in comparison with HFD+VersaPro control [1, 8]: higher degree
degree of fibroblast proliferation (histopathology) in comparison with HFD+VersaPro control [1, 8]: higher degree
days of treatment to reach the wound size of the control group at day 12 [1, 9]: 6 days
time to complete healing of the wound [1, 9]: 12 days
degree of polymorphonuclear cell infiltration (histopathology) ([1]; diabetes-induced mouse, VersaPro cream with 0.5% compound, excision wound): mild
markers of inflammation at the wound area, as measured by gene expression [2]: reduced
improvement of tensile strength of skin at the incision site compared with control formulation ([3]; after 14 days of treatment): up to 38%
collagen content, as estimated by measurement of hydroxyproline, compared with controls ([3]; incision): greater
closure of wound area (wound healing properties, image analysis) [4]: good wound healing properties
improvement of tensile strength of skin at the incision site compared with control formulation [5]: up to 18%
Wound contraction profile in SAM ([6]; Day 0): 22.77 ± 1.38 mm^2
Wound contraction profile in SAM ([6]; Day 2): 15.00 ± 2.18 mm^2
Wound contraction profile in SAM ([6]; Day 4): 14.33 ± 2.62 mm^2
Wound contraction profile in SAM ([6]; Day 6): 10.44 ± 2.80 mm^2
Wound contraction profile in SAM ([6]; Day 8): 3.20 ± 1.46 mm^2
Wound contraction profile in SAM ([6]; Day 10): 1.00 ± 0.54 mm^2
Wound contraction profile in SAM ([6]; Day 12): 0.600 ± 0.600 mm^2
days of treatment to reach the wound size of the control group at day 12 ([6]; Swiss albino mice, excision): 6 days
time to complete healing of the wound ([6]; non-diabetic Swiss albino mice, excision): 12 days
Wound contraction profile in db/db mice ([7]; Day 0): 17.10 ± 0.69 mm^2
Wound contraction profile in db/db mice ([7]; Day 2): 23.80 ± 0.87 mm^2
Wound contraction profile in db/db mice ([7]; Day 4): 14.40 ± 0.91 mm^2
Wound contraction profile in db/db mice ([7]; Day 6): 11.40 ± 0.48 mm^2
Wound contraction profile in db/db mice ([7]; Day 8): 8.20 ± 0.42 mm^2
Wound contraction profile in db/db mice ([7]; Day 10): 5.00 ± 0.47 mm^2
Wound contraction profile in db/db mice ([7]; Day 12): 2.20 ± 0.42 mm^2
Wound contraction profile in db/db mice ([7]; Day 16): 0.30 ± 0.21 mm^2
days of treatment to reach the wound size of the control group at day 12 ([7]; db/db mice, excision): 8 days
time to complete healing of the wound ([7]; diabetic db/db mice, excision): 16 days

From patent US10328063B2, “Method of wound healing” (CONNEXIOS LIFE SCIENCES PVT. LTD, priority 2015, dated 2019)
